Assay results reported in US5719129A, “Derivative of caffeic acid, oraposide, and cosmetic or pharmaceutical compositions, in particular dermatological compositions, containing it” (priority 1993, dated 1998).
Each block holds one compound with its values, some of them ahead of it.

How the values were obtained:
A.R. calf lens = target: T1, A.R. calf lens (Bos taurus, UniProt P16116); assay: Inhibition of aldose reductase, calf lens; assay type: biochemical, bovine (calf)
T1 construct: crude enzyme extract isolated from lenses freshly obtained from bovines and rats; from tissue; host or cells: calf (bovine) lens, crude enzyme extract
Experimental: (§1) Enzyme inhibition was evaluated in vitro using a crude enzyme extract isolated from lenses freshly obtained from bovines and rats. The principle of the reaction is as follows: [drawing 3]
(§2) This reaction takes place at PH=6.2 at ambient temperature and extinctions were measured at 340 nm. The molecules tested were dissolved in twice-distilled water.
The aldose reductase inhibiting activity of the various heteroside caffeic esters (1) and (2) correspond to two different series of experiments.

A.R. - Rat lens = target: T2, A.R. - Rat lens (Rattus norvegicus, UniProt P07943); assay: Inhibition of aldose reductase, rat lens; assay type: biochemical
T2 construct: crude enzyme extract isolated from lenses freshly obtained from bovines and rats; from tissue; host or cells: rat lens, crude enzyme extract
Experimental: as §1, §2

human keratinocytes [1] = assay: Cytotoxicity in keratinocyte culture (LDH release); conditions: for cytotoxicity (in words) / % increase in OD with respect to the control (+DMSO), D1 / % increase in OD with respect to the control (+DMSO), D2 / % increase in OD with respect to the control (+DMSO), D3: 200 μM; for cytotoxicity (in words): LDH release; for % increase in OD with respect to the control (+DMSO), D1: day 1, mean of 3 measurements; for % increase in OD with respect to the control (+DMSO), D2: day 2, mean of 3 measurements; for % increase in OD with respect to the control (+DMSO), D3: day 3, mean of 3 measurements
Experimental: Culture medium: DMEM (1/2), HAM F12 (1/2) basic medium (from the Gibco company), with added 5% foetal calf serum (from the Intermed company).
Cultures were prepared in 60 mm petri dishes (NUNC), seeding density: 5000 cells per cm^2.
The compounds were tested in solution in DMSO at 200 μM, the control cultures containing an identical amount of solvent.
The amount of LDH released into the culture medium after daily treatment with anti-free-radical molecules was determined after 24 hours and then for 6 days.
The supernatant from the culture was contacted with sodium pyruvate and NADH, and the kinetics of LDH activity were measured spectrophotometrically (Boehringer kit).

human keratinocytes [2] = assay: Anti-free-radical activity in keratinocyte cultures (MDA production); assay type: cell-based; conditions: for inhibition at 100 µM: Homo sapiens, Keratinocyte, 2 h, 2 hours incubation, mean of 3 measurements
Experimental: The anti-free-radical activity of oraposide was investigated on a line of human keratinocytes in culture, in comparison with well known anti-free-radical agents.
The protective activity of the anti-free-radical agent was evaluated by measuring malonaldehyde (MDA) in the culture medium (reflecting the lipoperoxidation of cell membrane lipids) after the cells had been brought into contact with a source of oxygenated free radicals (after the method of Z. A. Placer et al., 1966, Anal. Biochem. 16, 359-64, reference cited above).
Cells: human keratinocytes from a squamous carcinoma.
One week after seeding the merged single layer of cells was processed with […] of a solution containing an oxygenated radical generator consisting of vitamin C 10^-3 M, FeCl3 10^-4 M, FeSO4 10^-4 M in pH 8 PBS buffer to which the molecule being tested was added (=reaction medium).
After incubation at 37° C. for 2 hours this incubation medium was recovered for the determination of MDA.
After 2 hours incubation with the cells the 500 μl of reaction medium was sampled and thiobarbituric acid was added in order to determine MDA at 532 nm.
The results are stated as % inhibition of MDA production.
The investigation was performed at a concentration of 100 μM for the 3 materials after 2 hours incubation with the reaction mixture. The MDA produced, determined by spectrophotometry, provided results which are expressed as % inhibition of this production in comparison with the controls (reaction medium alone).

rabbit liver microsomes = assay: Lipoperoxidation inhibition in liver microsomes (malonyl dialdehyde formation); assay type: biochemical
Experimental: Verbascoside, oraposide and arenarioside are heteroside esters of caffeic acid and the acids cited are other esters of caffeic acid.
A lipoperoxidation reaction takes place when rabbit liver microsomes are incubated in the presence of NADPH.
The microsomes were recovered from the processing of hepatocytes with ultrasound.
Lipoperoxidation was evaluated through the formation of malonyl dialdehyde in accordance with the method by Placer et al., 1966 (Analyt. Biochem. 16,359-364).
The reaction was performed in the absence of (control) and in the presence of caffeic acid or oraposide in a concentration of 5.10^-5 M or in the presence of α-tocopherol (Sigma) at 5.10^-5 M (known inhibiting activity reference).

[3] = test system: micromycete contaminants commonly found in foodstuffs; assay: Antifungal activity against micromycete contaminants of foodstuffs (25 species); assay type: cell-based; set-up: Strains whose growth was inhibited or diminished: concentration or dose not given beside the values; conditions: 25 species of fungi
Experimental: (§3) It is known that a number of caffeic acid derivatives inhibit the growth of bacteria and fungi. This property has been confirmed for oraposide with 40 different strains belonging to 10 genera of bacteria, and 25 different strains belonging to 25 species of fungi.
Antifungal activity was tested in relation to micromycete contaminants commonly found in foodstuffs. The test was performed with 25 species belonging to the Adelomycetes (e.g. Alternaria tenuis, Fusarium avenceum, Geotricom candidum, etc.), Mucorales (e.g. Mucor mucedo, Cunninghamella elegans, Rhizopus nigricans, etc.), Endomycetes (e.g. Candida lipolytica, Saccharomyces cerevisiae, etc.), Plectomycetes (e.g. Aspergillus clavatus, A. niger, Penicillium chrysogenum, P. rubturm, etc.), and Pyrenomycetes (e.g. Chaetomium globosum, Sordaria himicola, etc.).

rabbit hepatocytes [4] = assay: Cell toxicity of oraposide itself on hepatocytes; assay type: cell-based; conditions: even at a concentration of 100 μM
From the text: (§4) The experimental model selected was investigation of the release of lactate dehydrogenase (LDH) by rabbit hepatocytes in primary culture, this LDH release representing a marker of hepatocyte deterioration.

Parkinson's disease = assay: Effect in Parkinson's disease on abnormal movements and secondary disturbances due to treatment with L-dopa; assay type: in vivo; conditions: associated with L-dopa
From the text: (§5) In accordance with a particular embodiment of the invention within the context of antitremor treatment, in particular in Parkinson's disease, the composition according to the aforesaid invention also contains a therapeutically effective amount of L-dopa. In fat oraposide and its derivatives of formula I aforesaid have a potentiating activity for L-dopa in its antitremor activity, which is effective in particular in Parkinson's disease. Oraposide and its derivatives of formula I aforesaid associated with L-dopa in fact experimentally reduce tremor caused by a tremor-inducing factor in animals and in man. In Parkinson's disease an improvement in abnormal movements (of the choreic type) and other secondary disturbances due to treatment with L-dopa is found.

Staphylococcus aureus = assay: Antibacterial effect, 29 strains of Staphylococcus aureus; assay type: cell-based
rabbit hepatocytes [5] = assay: LDH release by hepatocytes in primary culture intoxicated with chloroform; assay type: cell-based; conditions: oraposide 5.10^-5 M; chloroform 10^-4 M; 3, 7 and 24 hours (FIG. 2)
From the text: As in FIG. 1, reference 1 indicates the results obtained with untreated cultures, reference 2 the results obtained with cultures treated with 10^-4 M chloroform, and reference 3 the results obtained with cultures treated with a combination of 10^-4 M chloroform and oraposide in a concentration of 5.10^-5 M. Chloroform is also a hepatotoxic agent.
as §4
(§6) The hepatocytes were deliberately intoxicated with nitroxynil (10^-4 to 10^-5 M) or chloroform (10^-3 to 10^-5 M) .
(§7) The effect of oraposide was evaluated for a final concentration of 0.05 mM in the culture medium.

rabbit hepatocytes [6] = assay: LDH release by hepatocytes in primary culture intoxicated with nitroxynil; assay type: cell-based; conditions: oraposide 5.10^-5 M (0.05 mM); nitroxynil 10^-4 M; 3 and 7 hours (FIG. 1)
From the text: Reference 1 in the two blocks of histograms indicates the results obtained with untreated cultures, acting as controls, reference 2 indicates histogram blocks obtained using cultures treated with nitroxynil at a concentration of 10^-4 M, reference 3 indicates histogram blocks obtained with cultures treated with nitroxynil in a concentration of 10^-4 M and verbascoside in a concentration of 5.10 ^-5 M, reference 4 indicates histogram blocks obtained with cultures treated with nitroxynil in a concentration of 10^-4 M and oraposide in a concentration of 5.10^-5 M, and reference 5 indicates histogram blocks obtained with cultures treated with nitroxynil in a concentration of 10^-4 M and arenarioside in a concentration of 5.10^-5 M. Nitroxynil is a hepatotoxic agent, verbascoside and arenarioside are other heteroside esters of caffeic acid which are known to those skilled in the art.
as §4, §6, §7

aldose reductase = assay: Inhibition of aldose reductase, comparison in the conclusion (species not given); assay type: biochemical; conditions: value given in conclusion, species not specified; read-out: IC 50 (conclusion)
From the text: The four molecules inhibit aldose reductase from both cattle and rats.

[7] = UV absorption of oraposide compared with sunscreen filters (integration of UVB and UVA peak surface areas); assay type: physicochemical
From the text: Integration of the surface areas of the UVB peaks can be used to compare oraposide with Parsol MCX®, from which it can be seen that the UVB absorption activity of oraposide is 0.4 times that of Parsol MCX®. If the surface area of the UVA peak of oraposide is integrated and compared with Parsol 1 789®, it will be seen that the UVA absorption of oraposide is approximately 0.2 times that of Parsol 1 789®.

[8] = test system: tremor caused by a tremor-inducing factor; assay: Antitremor activity in association with L-dopa against a tremor-inducing factor, in animals and in man; assay type: in vivo; conditions: associated with L-dopa
From the text: as §5

bacterial strains = assay: Antibacterial effect, 40 strains belonging to 10 genera of bacteria; assay type: cell-based; conditions: doses of 0.5 mg/ml and above
From the text: as §3
The bacterial strains tested were: Staphylococcus aureus, Streptococcus (group A and group D), Escherichia coli, Klebsiella pneumoniae, Proteus sp., Providentia sp., Serratia marcescens, Enterobacter cloacae, Pseudomonas aeruginosa, Salmonella (S. typhi and S. para-typhi).

[9] = 5.10^-5 M, microsomes with NADPH (FIG. 3)

Structure (SMILES): C[C@@H]1OC(O[C@@H]2[C@@H](O)[C@H](OCCc3ccc(O)c(O)c3)O[C@H](CO[C@@H]3OC[C@@H](O)[C@H](O)[C@H]3O)[C@H]2OC(=O)/C=C/c2ccc(O)c(O)c2)[C@H](O)[C@H](O)[C@H]1O (stereo partly shown) [Arenarioside]
- IC50 (A.R. calf lens; series (1)): 2380 nM
- IC50 (A.R. calf lens; series (2)): 1470 nM
- IC50 (A.R. - Rat lens): 4180 nM

Structure (SMILES): Cc1cc(C(C)(C)C)c(O)c(C(C)(C)C)c1 [BHT, reference compound]
- cytotoxicity (in words) (human keratinocytes [1]): high cytotoxicity
- inhibition at 100 µM (human keratinocytes [2]): 64 ± 2%

Structure (SMILES): Cc1c(C)c2c(c(C)c1O)CCC(C)(CCCC(C)CCCC(C)CCCC(C)C)O2 (stereo not drawn) [α-tocopherol, reference compound]
- cytotoxicity (in words) (human keratinocytes [1]): less pronounced
- % increase in OD with respect to the control (+DMSO), D1 (human keratinocytes [1]): 19 ± 2%
- % increase in OD with respect to the control (+DMSO), D2 (human keratinocytes [1]): 83 ± 20%
- % increase in OD with respect to the control (+DMSO), D3 (human keratinocytes [1]): 54 ± 8%
- inhibition of lipoperoxidation (in words) (rabbit liver microsomes; [9]): equivalent inhibiting activity
- inhibition at 100 µM (human keratinocytes [2]): 100%

Structure (SMILES): CC1OC(OC2C(OC(=O)C=Cc3ccc(O)c(O)c3)C(CO)OC3OCC(c4ccc(O)c(O)c4)OC32)C(O)C(O)C1O [Oraposide, 3-0-(α-L-rhamnopyranosyl)-[2-(3,4-dihydroxyphenyl)-1,2-ethylidene]-β-D-glucopyranoside 4-caffeate]
- cell toxicity (rabbit hepatocytes [4]): no cell toxicity
- IC50 (A.R. calf lens; series (1)): 150 nM
- IC50 (A.R. calf lens; series (2)): 165 nM
- abnormal movements (of the choreic type) and other secondary disturbances due to treatment with L-dopa (Parkinson's disease): improvement
- inhibition at 60 µg/mL (Staphylococcus aureus; 0.06 mg/ml): 70%
- inhibition at 120 µg/mL (Staphylococcus aureus; 0.12 mg/ml): 80%
- release of LDH by hepatocytes intoxicated with chloroform (rabbit hepatocytes [5]): a less clear effect
- cytotoxicity (in words) (human keratinocytes [1]): no cytotoxic effect
- % increase in OD with respect to the control (+DMSO), D1 (human keratinocytes [1]): 0%
- % increase in OD with respect to the control (+DMSO), D2 (human keratinocytes [1]): 0%
- % increase in OD with respect to the control (+DMSO), D3 (human keratinocytes [1]): 0%
- cytotoxic effect up to a concentration of 200 μM (human keratinocytes [1]; up to 200 μM): no cytotoxic effect
- inhibition of lipoperoxidation (rabbit liver microsomes; [9]): 100%
- inhibition of lipoperoxidation (in words) (rabbit liver microsomes; [9]): stronger inhibition
- inhibition of lipid oxidation potentiated by CCl4 (rabbit liver microsomes; free radical generator CCl4): 100%
- inhibition of lipid oxidation potentiated by H2O2 (rabbit liver microsomes; free radical generator H2 O2): 90%
- IC50 (rabbit liver microsomes; read-out: dose required to obtain 50% inhibition of lipoperoxidation, FIG. 4): 10000 nM
- Strains whose growth was inhibited or diminished [3]: 92%
- Strains whose growth was inhibited by an MIC <10 mg/ml [3]: 64%
- release of LDH by hepatocytes intoxicated with nitroxynil (rabbit hepatocytes [6]): very significantly reduces the release of LDH
- IC50 (aldose reductase): 160 nM
- UVA absorption relative to Parsol 1 789 ([7]; surface area of UVA peak, vs Parsol 1 789): approximately 0.2 times
- UVB absorption activity relative to Parsol MCX ([7]; surface area of UVB peak, vs Parsol MCX): 0.4 times
- tremor caused by a tremor-inducing factor [8]: reduce tremor
- protective power / anti-free-radical activity (in words) (human keratinocytes [2]; 100 μM): equally effective as BHT, but less effective than α-tocopherol
- inhibition at 100 µM (human keratinocytes [2]; 1st experiment): 70 ± 3%
- inhibition at 100 µM (human keratinocytes [2]; 2nd experiment): 60 ± 15%
- inhibition of all bacterial strains (bacterial strains): 100%
- IC50 (A.R. - Rat lens): 220 nM

More lines, main results first:

- Strains whose growth was inhibited by an MIC <10 mg/ml [3]: 40%
Structure (SMILES): O=C(/C=C/c1ccc(O)c(O)c1)O[C@@H]1C[C@](O)(C(=O)O)C[C@@H](O)[C@H]1O [Chlorogenic acid]
- Strains whose growth was inhibited or diminished [3]: 80%

- Strains whose growth was inhibited by an MIC <10 mg/ml [3]: 52%
Structure (SMILES): O=C(O)/C=C/c1ccc(O)c(O)c1 [Caffeic acid, 3,4-dihydroxycinnamic acid]
- inhibition of lipoperoxidation (in words) (rabbit liver microsomes; [9]): equivalent inhibiting activity
- Strains whose growth was inhibited or diminished [3]: 83%

- Strains whose growth was inhibited by an MIC <10 mg/ml [3]: 96%
Structure (SMILES): O=C(/C=C/c1ccc(O)c(O)c1)O[C@H](Cc1ccc(O)c(O)c1)C(=O)O [Rosmarinic acid]
- Strains whose growth was inhibited or diminished [3]: 100%

- IC50 (A.R. calf lens; series (1)): 1600 nM
- IC50 (A.R. calf lens; series (2)): 1600 nM
- Strains whose growth was inhibited by an MIC <10 mg/ml [3]: 44%
- IC50 (A.R. - Rat lens): 1780 nM
Structure (SMILES): C[C@@H]1O[C@@H](O[C@@H]2[C@@H](O)[C@H](OCCc3ccc(O)c(O)c3)O[C@H](CO)[C@H]2OC(=O)/C=C/c2ccc(O)c(O)c2)[C@H](O)[C@H](O)[C@H]1O [Verbascoside]
- Strains whose growth was inhibited or diminished [3]: 72%
